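Assay format: 96-well plates, 48-hour exposure. At the TGI there is no net growth.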
Experiments:
Experiment in all cases: NCI tumour cell line growth inhibition, 48 h
COLO 205 colon = system: COLO 205 colon
IGROV1 ovarian = system: IGROV1 ovarian
MALME-3M melanoma = system: MALME-3M melanoma
KM20L2 colon = system: KM20L2 colon
DLD-1 colon = system: DLD-1 colon
SNB-19 CNS = system: SNB-19 CNS
OVCAR-8 ovarian = system: OVCAR-8 ovarian
HCT-116 colon = system: HCT-116 colon
KM12 colon = system: KM12 colon
A498 renal = system: A498 renal
RXF 393 renal = system: RXF 393 renal
NCI-H460 lung = system: NCI-H460 lung
SK-MEL-5 melanoma = system: SK-MEL-5 melanoma
SW-620 colon = system: SW-620 colon
ACHN renal = system: ACHN renal
XF 498 CNS = system: XF 498 CNS
SF-268 CNS = system: SF-268 CNS
HOP-62 NSCLC = system: HOP-62 NSCLC
SK-OV-3 ovarian = system: SK-OV-3 ovarian
RPMI-8226 leukemia = system: RPMI-8226 leukemia
NCI-H226 lung = system: NCI-H226 lung
SF-539 CNS = system: SF-539 CNS
NCI-H23 lung = system: NCI-H23 lung
RXF-631 renal = system: RXF-631 renal
OVCAR-4 ovarian = system: OVCAR-4 ovarian
HCT-15 colon = system: HCT-15 colon
UACC-62 melanoma = system: UACC-62 melanoma
TK-10 renal = system: TK-10 renal
M14 melanoma = system: M14 melanoma
786-0 renal = system: 786-0 renal
HOP-92 NSCLC = system: HOP-92 NSCLC
SNB-75 CNS = system: SNB-75 CNS
HCC-2998 colon = system: HCC-2998 colon
SNB-78 CNS = system: SNB-78 CNS
SR leukemia = system: SR leukemia
NCI-H522 lung = system: NCI-H522 lung
K-562 leukemia = system: K-562 leukemia
SN12C renal = system: SN12C renal
DMS 114 small cell lung = system: DMS 114 small cell lung
HL-60(TB) leukemia = system: HL-60(TB) leukemia
U251 CNS = system: U251 CNS
HOP-18 NSCLC = system: HOP-18 NSCLC
LXFL 529 NSCLC = system: LXFL 529 NSCLC
SK-MEL-2 melanoma = system: SK-MEL-2 melanoma
CAKI-1 renal = system: CAKI-1 renal
MOLT-4 leukemia = system: MOLT-4 leukemia
DMS 273 small cell lung = system: DMS 273 small cell lung
EKVX NSCLC = system: EKVX NSCLC
OVCAR-5 ovarian = system: OVCAR-5 ovarian
UO-31 renal = system: UO-31 renal
SF-295 CNS = system: SF-295 CNS
HT29 colon = system: HT29 colon
A549 NSCLC = system: A549 NSCLC
OVCAR-3 ovarian = system: OVCAR-3 ovarian
UACC-257 melanoma = system: UACC-257 melanoma
M19-MEL melanoma = system: M19-MEL melanoma
LOX IMVI melanoma = system: LOX IMVI melanoma
T-47D breast = system: T-47D breast
NCI/ADR-RES ovarian = system: NCI/ADR-RES ovarian
PC-3 prostate = system: PC-3 prostate
MCF7 breast = system: MCF7 breast
BT-549 breast = system: BT-549 breast
MDA-MB-231 breast = system: MDA-MB-231 breast
SK-MEL-28 melanoma = system: SK-MEL-28 melanoma
MDA-N = system: MDA-N
MDA-MB-435 = system: MDA-MB-435
DU-145 prostate = system: DU-145 prostate
HS 578T breast = system: HS 578T breast
CCRF-CEM leukemia = system: CCRF-CEM leukemia
P388 leukemia = system: P388 leukemia
SN12K1 renal = system: SN12K1 renal
P388/ADR leukemia = system: P388/ADR leukemia

Cc1ccc(S(=O)(=O)NC2(C=O)CCC(C(C)(C)C)CC2)cc1 (configuration not stated)
TGI (COLO 205 colon): 73.3 µM | TGI (IGROV1 ovarian): > 100 µM | TGI (MALME-3M melanoma): > 100 µM | TGI (KM20L2 colon): 75.4 µM | TGI (DLD-1 colon): > 100 µM | TGI (SNB-19 CNS): > 100 µM | TGI (OVCAR-8 ovarian): > 100 µM | TGI (HCT-116 colon): 68.8 µM | TGI (KM12 colon): 84.5 µM | TGI (A498 renal): > 100 µM | TGI (RXF 393 renal): > 100 µM | TGI (NCI-H460 lung): > 100 µM | TGI (SK-MEL-5 melanoma): 47.2 µM | TGI (SW-620 colon): > 100 µM | TGI (ACHN renal): > 100 µM | TGI (XF 498 CNS): > 100 µM | TGI (SF-268 CNS): > 100 µM | TGI (HOP-62 NSCLC): > 100 µM | TGI (SK-OV-3 ovarian): > 100 µM | TGI (RPMI-8226 leukemia): 46.3 µM | TGI (NCI-H226 lung): > 100 µM | TGI (SF-539 CNS): > 100 µM | TGI (NCI-H23 lung): 85.6 µM | TGI (RXF-631 renal): > 100 µM | TGI (OVCAR-4 ovarian): > 100 µM | TGI (HCT-15 colon): > 100 µM | TGI (UACC-62 melanoma): > 100 µM | TGI (TK-10 renal): > 100 µM | TGI (M14 melanoma): > 100 µM | TGI (786-0 renal): > 100 µM | TGI (HOP-92 NSCLC): 99.8 µM | TGI (SNB-75 CNS): > 100 µM | TGI (HCC-2998 colon): > 100 µM | TGI (SNB-78 CNS): > 100 µM | TGI (SR leukemia): 36.9 µM | TGI (NCI-H522 lung): 54.9 µM | TGI (K-562 leukemia): 70.8 µM | TGI (SN12C renal): 68.7 µM | TGI (DMS 114 small cell lung): 62.8 µM | TGI (HL-60(TB) leukemia): 42.9 µM | TGI (U251 CNS): > 100 µM | TGI (HOP-18 NSCLC): > 100 µM | TGI (LXFL 529 NSCLC): > 100 µM | TGI (SK-MEL-2 melanoma): > 100 µM | TGI (CAKI-1 renal): > 100 µM | TGI (MOLT-4 leukemia): 41.3 µM | TGI (DMS 273 small cell lung): > 100 µM | TGI (EKVX NSCLC): > 100 µM | TGI (OVCAR-5 ovarian): > 100 µM | TGI (UO-31 renal): > 100 µM | TGI (SF-295 CNS): 94.9 µM | TGI (HT29 colon): > 100 µM | TGI (A549 NSCLC): > 100 µM | TGI (OVCAR-3 ovarian): > 100 µM | TGI (UACC-257 melanoma): > 100 µM | TGI (M19-MEL melanoma): 73.8 µM

CN(C)CCCNc1ccc2nnn3c4ccc([N+](=O)[O-])cc4c(=O)c1c23
TGI (COLO 205 colon): 5.35 µM | TGI (LOX IMVI melanoma): 2.22 µM | TGI (IGROV1 ovarian): 13.3 µM | TGI (MALME-3M melanoma): 14.5 µM | TGI (T-47D breast): 27.9 µM | TGI (KM20L2 colon): 9.69 µM | TGI (DLD-1 colon): 14.4 µM | TGI (SNB-19 CNS): 15.3 µM | TGI (OVCAR-8 ovarian): 5.38 µM | TGI (HCT-116 colon): 12.3 µM | TGI (KM12 colon): 4.53 µM | TGI (NCI/ADR-RES ovarian): 3.09 µM | TGI (PC-3 prostate): 11.7 µM | TGI (A498 renal): 6.33 µM | TGI (RXF 393 renal): 4.25 µM | TGI (NCI-H460 lung): 1.57 µM | TGI (MCF7 breast): 8.08 µM | TGI (SK-MEL-5 melanoma): 5.97 µM | TGI (SW-620 colon): 12.9 µM | TGI (ACHN renal): 5.92 µM | TGI (XF 498 CNS): 11.4 µM | TGI (SF-268 CNS): 12 µM | TGI (HOP-62 NSCLC): 8.51 µM | TGI (SK-OV-3 ovarian): 16 µM | TGI (RPMI-8226 leukemia): 7.31 µM | TGI (NCI-H226 lung): 3.02 µM | TGI (SF-539 CNS): 14.2 µM | TGI (NCI-H23 lung): 8.61 µM | TGI (RXF-631 renal): 7.59 µM | TGI (OVCAR-4 ovarian): 3.92 µM | TGI (HCT-15 colon): 7.77 µM | TGI (UACC-62 melanoma): 14.4 µM | TGI (TK-10 renal): 7.95 µM | TGI (BT-549 breast): 19.2 µM | TGI (M14 melanoma): 8.31 µM | TGI (786-0 renal): 13 µM | TGI (HOP-92 NSCLC): 7.45 µM | TGI (SNB-75 CNS): 8.55 µM | TGI (MDA-MB-231 breast): 2.95 µM | TGI (SK-MEL-28 melanoma): 17.2 µM | TGI (HCC-2998 colon): 10.4 µM | TGI (SNB-78 CNS): 16 µM | TGI (SR leukemia): 6.03 µM | TGI (NCI-H522 lung): 17 µM | TGI (K-562 leukemia): 21.9 µM | TGI (SN12C renal): 9.5 µM | TGI (DMS 114 small cell lung): 14.1 µM | TGI (HL-60(TB) leukemia): 11.3 µM | TGI (U251 CNS): 5.16 µM | TGI (MDA-N): 15.9 µM | TGI (MDA-MB-435): 12.3 µM | TGI (HOP-18 NSCLC): 13.6 µM | TGI (LXFL 529 NSCLC): 15 µM | TGI (SK-MEL-2 melanoma): 15 µM | TGI (DU-145 prostate): 12.1 µM | TGI (CAKI-1 renal): 12.9 µM | TGI (MOLT-4 leukemia): 5.63 µM | TGI (DMS 273 small cell lung): 6.89 µM | TGI (EKVX NSCLC): 12.9 µM | TGI (OVCAR-5 ovarian): 9.59 µM | TGI (UO-31 renal): 9.5 µM | TGI (SF-295 CNS): 7.44 µM | TGI (HT29 colon): 7.11 µM | TGI (A549 NSCLC): 3.06 µM | TGI (HS 578T breast): 14.2 µM | TGI (CCRF-CEM leukemia): 12.1 µM | TGI (OVCAR-3 ovarian): 11 µM | TGI (UACC-257 melanoma): 16.7 µM | TGI (M19-MEL melanoma): 16.2 µM

CCC1OC(=O)C(C)C(OC2CC(C)(O)C(O)C(C)O2)C(C)C(O)C(C)(O)CC(C)C(=O)C(C)C(O)C1C (configuration not stated)
TGI (COLO 205 colon): > 300 µM | TGI (LOX IMVI melanoma): > 300 µM | TGI (IGROV1 ovarian): > 300 µM | TGI (MALME-3M melanoma): > 300 µM | TGI (KM20L2 colon): > 300 µM | TGI (DLD-1 colon): > 300 µM | TGI (SNB-19 CNS): > 300 µM | TGI (OVCAR-8 ovarian): > 300 µM | TGI (HCT-116 colon): > 300 µM | TGI (KM12 colon): > 300 µM | TGI (NCI/ADR-RES ovarian): > 300 µM | TGI (A498 renal): > 300 µM | TGI (RXF 393 renal): > 300 µM | TGI (NCI-H460 lung): > 300 µM | TGI (MCF7 breast): > 300 µM | TGI (SK-MEL-5 melanoma): > 300 µM | TGI (SW-620 colon): > 300 µM | TGI (XF 498 CNS): > 300 µM | TGI (P388 leukemia): > 300 µM | TGI (SF-268 CNS): > 300 µM | TGI (HOP-62 NSCLC): > 300 µM | TGI (SN12K1 renal): > 300 µM | TGI (SK-OV-3 ovarian): > 300 µM | TGI (RPMI-8226 leukemia): > 300 µM | TGI (NCI-H226 lung): > 300 µM | TGI (SF-539 CNS): > 300 µM | TGI (NCI-H23 lung): > 300 µM | TGI (OVCAR-4 ovarian): > 300 µM | TGI (HCT-15 colon): > 300 µM | TGI (UACC-62 melanoma): > 300 µM | TGI (HOP-92 NSCLC): > 300 µM | TGI (SNB-75 CNS): > 300 µM | TGI (P388/ADR leukemia): > 300 µM | TGI (SK-MEL-28 melanoma): > 300 µM | TGI (HCC-2998 colon): > 300 µM | TGI (SNB-78 CNS): > 189 µM | TGI (NCI-H522 lung): > 300 µM | TGI (K-562 leukemia): > 300 µM | TGI (SN12C renal): > 300 µM | TGI (DMS 114 small cell lung): > 300 µM | TGI (HL-60(TB) leukemia): > 300 µM | TGI (U251 CNS): > 300 µM | TGI (HOP-18 NSCLC): > 300 µM | TGI (SK-MEL-2 melanoma): > 300 µM | TGI (CAKI-1 renal): > 300 µM | TGI (MOLT-4 leukemia): > 300 µM | TGI (DMS 273 small cell lung): > 300 µM | TGI (EKVX NSCLC): > 300 µM | TGI (OVCAR-5 ovarian): > 300 µM | TGI (UO-31 renal): > 300 µM | TGI (SF-295 CNS): > 300 µM | TGI (HT29 colon): > 300 µM | TGI (A549 NSCLC): > 300 µM | TGI (CCRF-CEM leukemia): > 300 µM | TGI (OVCAR-3 ovarian): > 300 µM | TGI (UACC-257 melanoma): > 300 µM | TGI (M19-MEL melanoma): > 300 µM
